Reference: ChEMBL document CHEMBL1201862, “PubChem BioAssay data set” (2004)
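Briefly, cells in 96-well plates were exposed to five compound concentrations for 48 h, and endpoints were estimated by linear interpolation. Here, GI50 denotes the concentration required for 50% inhibition of growth.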 Calls of active or inactive are those of the source. Rule as the data show it: active = GI50 up to about 1.1 µM and inactive = higher.

Experiments:
Assay in all cases: NCI tumour cell line growth inhibition, 48 h
786-0 = test system: 786-0
A498 = test system: A498
A549 = test system: A549
ACHN = test system: ACHN
CCRF-CEM = test system: CCRF-CEM
COLO 205 = test system: COLO 205
DLD-1 = test system: DLD-1
DMS-114 = test system: DMS-114
DMS-273 = test system: DMS-273
EKVX = test system: EKVX
HCC 2998 = test system: HCC 2998
HCT-116 = test system: HCT-116
HCT-15 = test system: HCT-15
HL-60 = test system: HL-60
HOP-18 = test system: HOP-18
HOP-62 = test system: HOP-62
HOP-92 = test system: HOP-92
HT-29 = test system: HT-29
IGROV-1 = test system: IGROV-1
K562 = test system: K562
KM-20L2 = test system: KM-20L2
KM12 = test system: KM12
LOX IMVI = test system: LOX IMVI
LXFL 529 = test system: LXFL 529
M14 = test system: M14
M19-MEL = test system: M19-MEL
MOLT-4 = test system: MOLT-4
Malme-3M = test system: Malme-3M
NCI-H226 = test system: NCI-H226
NCI-H23 = test system: NCI-H23
NCI-H460 = test system: NCI-H460
NCI-H522 = test system: NCI-H522
OVCAR-3 = test system: OVCAR-3
OVCAR-5 = test system: OVCAR-5
OVCAR-8 = test system: OVCAR-8
RPMI-8226 = test system: RPMI-8226
RXF 393 = test system: RXF 393
SF-268 = test system: SF-268
SF-295 = test system: SF-295
SF-539 = test system: SF-539
SK-MEL-28 = test system: SK-MEL-28
SK-MEL-2 = test system: SK-MEL-2
SK-MEL-5 = test system: SK-MEL-5
SK-OV-3 = test system: SK-OV-3
SN12C = test system: SN12C
SNB-19 = test system: SNB-19
SNB-75 = test system: SNB-75
SR = test system: SR
SW-620 = test system: SW-620
TK-10 = test system: TK-10
U-251 = test system: U-251
UACC-257 = test system: UACC-257
UACC-62 = test system: UACC-62
UO-31 = test system: UO-31
XF498 = test system: XF498
CAKI-1 = test system: CAKI-1
OVCAR-4 = test system: OVCAR-4
SNB-78 = test system: SNB-78

Compound: CCOC(=O)COc1ccc(OCC(=O)OCC)c2c1C(=O)CCCC2=O
- GI50 (786-0): > 100 µM (inactive)
- GI50 (A498): 0.281 µM (active)
- GI50 (A549): > 100 µM (inactive)
- GI50 (ACHN): > 100 µM (inactive)
- GI50 (CCRF-CEM): > 100 µM (inactive)
- GI50 (COLO 205): > 100 µM (inactive)
- GI50 (DLD-1): > 100 µM (inactive)
- GI50 (DMS-114): > 100 µM (inactive)
- GI50 (DMS-273): > 100 µM (inactive)
- GI50 (EKVX): > 100 µM (inactive)
- GI50 (HCC 2998): > 100 µM (inactive)
- GI50 (HCT-116): > 100 µM (inactive)
- GI50 (HCT-15): > 100 µM
- GI50 (HL-60): > 100 µM (inactive)
- GI50 (HOP-18): > 100 µM (inactive)
- GI50 (HOP-62): > 100 µM (inactive)
- GI50 (HOP-92): > 100 µM (inactive)
- GI50 (HT-29): > 100 µM (inactive)
- GI50 (IGROV-1): 3.13 µM (inactive)
- GI50 (K562): > 100 µM (inactive)
- GI50 (KM-20L2): > 100 µM (inactive)
- GI50 (KM12): > 100 µM (inactive)
- GI50 (LOX IMVI): > 100 µM (inactive)
- GI50 (LXFL 529): > 100 µM (inactive)
- GI50 (M14): > 100 µM (inactive)
- GI50 (M19-MEL): > 100 µM (inactive)
- GI50 (MOLT-4): > 100 µM (inactive)
- GI50 (Malme-3M): > 100 µM (inactive)
- GI50 (NCI-H226): > 100 µM (inactive)
- GI50 (NCI-H23): > 100 µM (inactive)
- GI50 (NCI-H460): > 100 µM (inactive)
- GI50 (NCI-H522): > 100 µM (inactive)
- GI50 (OVCAR-3): > 100 µM (inactive)
- GI50 (OVCAR-5): > 100 µM (inactive)
- GI50 (OVCAR-8): > 100 µM (inactive)
- GI50 (RPMI-8226): > 100 µM (inactive)
- GI50 (RXF 393): > 100 µM (inactive)
- GI50 (SF-268): > 100 µM (inactive)
- GI50 (SF-295): > 100 µM (inactive)
- GI50 (SF-539): > 100 µM (inactive)
- GI50 (SK-MEL-28): > 100 µM (inactive)
- GI50 (SK-MEL-2): > 100 µM (inactive)
- GI50 (SK-MEL-5): 0.26 µM (active)
- GI50 (SK-OV-3): > 100 µM (inactive)
- GI50 (SN12C): > 100 µM (inactive)
- GI50 (SNB-19): > 100 µM (inactive)
- GI50 (SNB-75): > 100 µM (inactive)
- GI50 (SR): > 100 µM (inactive)
- GI50 (SW-620): > 100 µM (inactive)
- GI50 (TK-10): > 100 µM (inactive)
- GI50 (U-251): > 100 µM (inactive)
- GI50 (UACC-257): > 100 µM (inactive)
- GI50 (UACC-62): > 100 µM (inactive)
- GI50 (UO-31): > 100 µM (inactive)
- GI50 (XF498): > 100 µM (inactive)

Compound: NC1C=NNC1=O (stereo not drawn)
- GI50 (A549): > 100 µM (inactive)
- GI50 (ACHN): > 100 µM (inactive)
- GI50 (CAKI-1): > 100 µM (inactive)
- GI50 (CCRF-CEM): > 100 µM (inactive)
- GI50 (COLO 205): > 100 µM (inactive)
- GI50 (DLD-1): > 100 µM (inactive)
- GI50 (DMS-114): > 100 µM (inactive)
- GI50 (DMS-273): > 100 µM (inactive)
- GI50 (EKVX): > 100 µM (inactive)
- GI50 (HCC 2998): > 100 µM (inactive)
- GI50 (HCT-15): > 100 µM
- GI50 (HL-60): > 100 µM (inactive)
- GI50 (HOP-18): < 0.01 µM (active)
- GI50 (HT-29): > 100 µM (inactive)
- GI50 (IGROV-1): > 100 µM (inactive)
- GI50 (K562): > 100 µM (inactive)
- GI50 (KM-20L2): > 100 µM (inactive)
- GI50 (KM12): > 100 µM (inactive)
- GI50 (LOX IMVI): > 100 µM (inactive)
- GI50 (LXFL 529): > 100 µM (inactive)
- GI50 (M14): > 100 µM (inactive)
- GI50 (MOLT-4): > 100 µM (inactive)
- GI50 (Malme-3M): > 100 µM (inactive)
- GI50 (NCI-H23): > 100 µM (inactive)
- GI50 (NCI-H522): > 100 µM (inactive)
- GI50 (OVCAR-4): > 100 µM (inactive)
- GI50 (OVCAR-5): > 100 µM (inactive)
- GI50 (OVCAR-8): > 100 µM (inactive)
- GI50 (RPMI-8226): > 100 µM (inactive)
- GI50 (RXF 393): > 100 µM (inactive)
- GI50 (SF-268): > 100 µM (inactive)
- GI50 (SF-295): > 100 µM (inactive)
- GI50 (SF-539): > 100 µM (inactive)
- GI50 (SK-MEL-28): > 100 µM (inactive)
- GI50 (SK-MEL-2): > 100 µM (inactive)
- GI50 (SK-MEL-5): > 100 µM (inactive)
- GI50 (SK-OV-3): > 100 µM (inactive)
- GI50 (SN12C): > 100 µM (inactive)
- GI50 (SNB-19): > 100 µM (inactive)
- GI50 (SNB-75): > 100 µM (inactive)
- GI50 (SNB-78): > 100 µM (inactive)
- GI50 (SW-620): > 100 µM (inactive)
- GI50 (TK-10): > 100 µM (inactive)
- GI50 (U-251): > 100 µM (inactive)
- GI50 (UACC-257): > 100 µM (inactive)
- GI50 (UACC-62): > 100 µM (inactive)
- GI50 (UO-31): > 100 µM (inactive)
- GI50 (XF498): > 100 µM (inactive)
